Assay results: patent publication US7056910B2, “1,4,5.6-tetrahydroimidazo[4,5-d]diazepine derivatives or salts thereof” (Astellas Pharma Inc., priority 2000, dated 2006)
Structures can show the parent of a compound that is named as a salt.

What was measured:
[1] = molecular target: drug metabolizing enzyme CYP3A4 (Homo sapiens, UniProt P08684); experiment: Cytochrome P450 (3A4) inhibition assay (BFC substrate, fluorescence); format: in vitro ADME; settings: BFC 5×10^−5 M substrate, 37° C., 30 minutes; read-out: Inhibition activity against drug metabolizing enzyme CYP3A4 (IC50/μM)
Procedure: (3) Cytochrome P450 (3A4) Inhibition Assay:
An assay was carried out according to the method of Crespi, et al. (Analytical Biochemistry, 248, 188–190, 1997). Using a 96-well plate, BFC (5×10^−5 M) as a substrate, a test compound (from 9.1×10^−8 to 2×10^−5 M), and an enzyme (10^−8 M) were incubated at 37° C. for 30 minutes in a total amount of 100 μL of a 20 mM phosphoric acid buffer solution (pH: 7.4) containing 1.3 mM NADP+, 3.3 mM glucose-6-pharpahte, 3.3 mM magnesium chloride, and 0.4 Units/mL glucose-6-phosphate dehydrogenase. Thereafter, a 100 mM TRIS buffer solution containing 80% acetonitrile was added to stop the reaction, and a fluorescent intensity (excitation wavelength: 409 nm, fluorescent wavelength: 530 nm) was measured by a fluorescent plate reader. An inhibition rate was calculated according to the following equation, and a concentration of the test compound at the inhibition rate of 50% (IC50 value) was determined. Inhibition rate (%)=[100−(C1−B1)]/(C0−B1)×100 C1: A fluorescent intensity in the presence of the test compound having a known concentration, enzyme and the substrate C0: A fluorescent intensity in the presence of enzyme and the substrate and in the absence of the test compound B1: A fluorescent intensity of the blank well

[2] = molecular target: T1, arginine vasopressin V1A receptor (Rattus norvegicus, UniProt P30560); experiment: V1A receptor binding assay ([3H]-vasopressin, rat hepatic membrane specimen); settings: [3H]-vasopressin 0.5 nM, 25° C., 60 minutes, read-out: Binding activity against arginine vasopressin V1A receptor (pki) (converted)
T1 construct: A rat hepatic membrane specimen was prepared; from tissue; host or cells: rat liver (hepatic membrane specimen)
Procedure: (1) V1A Receptor Binding Assay:
A rat hepatic membrane specimen was prepared according to the method of Nakamura, et al. (Journal of Biological Chemistry, Vol. 258, No. 15, pp. 9283–9289, 1983). The hepatic membrane specimen (30 μg) was incubated at 25° C. for 60 minutes in a total amount of 250 μL of a 50 mM TRIS-HCl buffer solution (pH: 7.4) containing 10 mM magnesium chloride and 0.1% bovine serum albumin (BSA), together with [^3H]-Arg-vasopressin (hereinafter simply referred to as “[^3H]-vasopressin”) (0.5 nM, specific activity: 75 Ci/mmol) and a test compound (from 10^−10 to 10^−6 M). Thereafter, liberated [^3H]-vasopressin and receptor-binding [^3H]-vasopressin were separated from each other by using a cell harvester, and the receptor-binding [^3H]-vasopressin was adsorbed on a UniFilter plate, GF/B glass filter. After thoroughly drying, the receptor-binding [^3H]-vasopressin was mixed with a microplate scintillation cocktail, the amount of the receptor-binding [^3H]-vasopressin was measured by using TopCount, and an inhibition rate was calculated according to the following equation. Inhibition rate (%)=[100−(C1−B1)]/(C0−B1)×100 C1: An amount of [^3H]-vasopressin binding to the membrane specimen when treating the receptor membrane specimen in the co-presence of the test compound having a known concentration and [^3H]-vasopressin C0: An amount of [^3H]-vasopressin binding to the membrane specimen when treating the receptor membrane specimen in the presence of [^3H]-vasopressin and in the absence of the test compound B1: An amount of [^3H]-vasopressin binding to the membrane specimen when treating the receptor membrane specimen in the co-presence of [^3H]-vasopressin and an excessive amount of vasopressin (10^−6 M)
According to the foregoing equation, a concentration of the test compound at the inhibition rate of 50% (IC50 value) was calculated, from which was then calculated an affinity of the test compound with the receptor, i.e., a dissociation constant (Ki), according to the following equation. Ki=IC50/(1+[L]/Kd) [L]: A concentration of [^3H]-vasopressin Kd: A dissociation constant of [^3H]-vasopressin against the receptor as determined by the saturation binding assay
A logarithm of the Ki value as calculated according to the foregoing equation was taken, and its negative value was defined as a pKi value.

[3] = molecular target: T2, arginine vasopressin V2 receptor (Rattus norvegicus, UniProt Q00788); experiment: V2 receptor binding assay ([3H]-vasopressin, rat renal medullary membrane specimen); settings: [3H]-vasopressin 0.5 nM, read-out: Binding activity against arginine vasopressin V2 receptor (pKi) (converted)
T2 construct: A rat renal medullary membrane specimen was prepared; from tissue; host or cells: rat renal medulla (membrane specimen)
Procedure: (2) V2 Receptor Binding Assay:
A rat renal medullary membrane specimen was prepared according to the method of Cambell, et al. (Journal of Biological Chemistry, Vol. 247, No. 19, pp. 6167–6175, 1972). The rat renal medullary membrane specimen (200 μg) was treated together with [^3H]-vasopressin (0.5 nM, specific activity: 75 Ci/mmol) and a test compound (from 10^−10 to 10^−6 M) in the same manner as in the foregoing V1A receptor binding assay, and the same measurement was carried out to determine a pKi value.

Chain of drug metabolizing enzyme CYP3A4 (P08684 whole entry): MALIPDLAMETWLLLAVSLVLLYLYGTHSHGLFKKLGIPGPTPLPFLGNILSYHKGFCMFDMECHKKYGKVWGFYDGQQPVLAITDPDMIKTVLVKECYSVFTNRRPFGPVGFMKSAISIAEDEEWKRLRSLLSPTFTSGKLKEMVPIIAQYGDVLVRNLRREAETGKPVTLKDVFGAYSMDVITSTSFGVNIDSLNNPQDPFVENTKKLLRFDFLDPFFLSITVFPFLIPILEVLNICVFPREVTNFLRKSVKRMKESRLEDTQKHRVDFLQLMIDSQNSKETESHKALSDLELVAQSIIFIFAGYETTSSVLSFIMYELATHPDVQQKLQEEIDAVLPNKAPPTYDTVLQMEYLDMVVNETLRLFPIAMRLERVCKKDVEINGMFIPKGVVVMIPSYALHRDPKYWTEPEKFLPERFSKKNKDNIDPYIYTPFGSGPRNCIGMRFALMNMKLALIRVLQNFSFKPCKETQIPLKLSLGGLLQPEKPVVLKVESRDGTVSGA
T2 sequence (Q00788 whole entry): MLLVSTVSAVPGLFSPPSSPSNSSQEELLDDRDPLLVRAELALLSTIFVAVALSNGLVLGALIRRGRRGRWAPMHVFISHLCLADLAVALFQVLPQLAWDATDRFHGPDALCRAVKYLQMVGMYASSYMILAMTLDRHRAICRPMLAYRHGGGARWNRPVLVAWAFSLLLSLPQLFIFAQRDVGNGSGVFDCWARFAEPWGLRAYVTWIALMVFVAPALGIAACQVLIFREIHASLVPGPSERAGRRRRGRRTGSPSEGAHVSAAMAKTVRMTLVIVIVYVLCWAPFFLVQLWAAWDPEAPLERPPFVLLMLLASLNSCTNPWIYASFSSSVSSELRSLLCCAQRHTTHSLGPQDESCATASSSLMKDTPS
T1 sequence (P30560 whole entry): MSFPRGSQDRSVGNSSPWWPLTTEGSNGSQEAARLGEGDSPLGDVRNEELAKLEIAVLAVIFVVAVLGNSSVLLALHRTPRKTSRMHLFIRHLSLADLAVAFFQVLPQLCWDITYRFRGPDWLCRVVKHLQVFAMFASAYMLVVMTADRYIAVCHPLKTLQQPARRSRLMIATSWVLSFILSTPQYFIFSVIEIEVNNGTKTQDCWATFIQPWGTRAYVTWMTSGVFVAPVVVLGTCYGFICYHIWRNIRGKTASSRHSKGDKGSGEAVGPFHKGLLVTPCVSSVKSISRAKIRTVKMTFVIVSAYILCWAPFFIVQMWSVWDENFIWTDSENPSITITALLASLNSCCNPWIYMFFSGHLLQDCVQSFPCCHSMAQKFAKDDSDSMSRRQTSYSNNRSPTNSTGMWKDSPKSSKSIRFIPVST

| SMILES | IC50 [1] | Ki [2] | Ki [3] | melting point |
| --- | --- | --- | --- | --- |
| O=C(Nc1ccc(C(=O)N2CCc3nc(Cc4ccccc4)[nH]c3-c3ccccc32)cc1)c1ccccc1-c1ccccc1 [Control compound 1, N-[4-(2-Benzyl-1,4,5,6-tetrahydroimidazo[4 5-d] [1]benzazepine-6-carbonyl)phenyl]biphenyl-2-carboxamide hydrochloride, reference compound] | 0.21 µM | 7.76 nM | 8.51 nM |  |
| O=C(Nc1ccc(C(=O)N2CCc3nc(C4CC4)[nH]c3-c3ccccc32)cc1)c1ccccc1-c1ccccc1 [Control compound 2, N-[4(2-Cyclopropyl-1,4,5,6-tetrahydroimidazo[4,5-d] [1]benzazepine-6-carbonyl)phenyl]biphenyl-2-carboxamide hydrochloride, reference compound] | 0.43 µM | 1.23 nM | 1.05 nM |  |
| O=C(Nc1ccc(C(=O)N2CCc3nc(-c4ccccn4)[nH]c3-c3ccccc32)cc1)c1ccccc1-c1ccccc1 [Example 1, N-{4-[2-(2-Pyridyl)-1,4,5,6-tetrahydroimidazo[4,5-d][1]benzazepine-6-carbonyl]phenyl}biphenyl-2-carboxamide hydrochloride] | 7.82 µM | 2.82 nM | 6.03 nM |  |
| O=C(Nc1ccc(C(=O)N2CCc3nc(-c4ccccn4)[nH]c3-c3ccccc32)cc1)c1ccccc1-c1ccccc1 [Example 6, N-{4-[2-(2-Pyridyl)-1,4,5,6-tetrahydroimidazo[4,5-d][1]benzazepine-6-carbonyl]phenyl}biphenyl-2-carboxamide] |  |  |  | 240 to 242 °C |
| O=C(Nc1ccc(C(=O)N2CCc3nc(-c4ccccn4)[nH]c3-c3ccccc32)cc1)c1ccccc1-c1ccccc1F [Example 9, 2′-fluoro-N-{4-[2-(2-pyridyl)-1,4,5,6-tetrahydroimidazo[4,5-d][1]benzazepine-6-carbonyl]phenyl}biphenyl-2-carboxamide] | 2.4 µM | 3.8 nM | 10.5 nM |  |
| O=C(Nc1ccc(C(=O)N2CCc3nc(-c4ccccn4)[nH]c3-c3ccccc32)nc1)c1ccccc1-c1ccccc1 [Example 11, N-{6-[2-(2-pyridyl)-1,4,5,6-tetrahydroimidazo[4,5-d][1]benzazepine-6-carbonyl]-3-pyridyl}biphenyl-2-carboxamide] | 2 µM | 1.95 nM | 12.3 nM |  |
| O=C(Nc1ccc(C(=O)N2CCc3nc(-c4ccccn4)[nH]c3-c3ccccc32)cc1O)c1ccccc1-c1ccccc1 [Example 12, N-{2-Hydroxy-4-[2-(2-pyridyl)-1,4,5,6-tetrahydroimidazo[4,5-d][1]-benzazepine-6-carbonyl]phenyl}biphenyl-2-carboxamide hydrochloride] | 5.9 µM | 7.59 nM | 28.8 nM |  |
